Results taken from PubChem BioAssay AID1963853 (Molecular Pharmacology Branch, DTP, NCI, 2024).

Tested on: 266295-075-R-J1-PDC spheroid viability
Experiment: Anticancer human tumor 266295-075-R-J1-PDC patient-derived head and neck squamous carcinoma cell line growth inhibition [POLQ]
Conditions: spheroids with HUVEC and MSC; for IC50: curve of first compound; for viability, T/C: stronger effect = lower value
Summary of the method: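 Patient-derived tumour cells were co-cultured with HUVEC and mesenchymal stem cells as multicellular spheroids at 37 °C. They were treated with POLQ inhibitors (novobiocin, ART-558, RP6685) alone or combined with other agents. Top concentrations were at or near clinical Cmax (otherwise 10 microM; SN-38 at 1 microM), decreasing in half-log steps.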

[1] = second compound 0.0316 µM, first compound 0.0316 µM
[2] = second compound 0.0316 µM, first compound 0.1 µM
[3] = second compound 0.0316 µM, first compound 0.316 µM
[4] = second compound 0.0316 µM, first compound 1 µM
[5] = second compound 0.0316 µM, first compound 3.16 µM
[6] = second compound 0.0316 µM, first compound 10 µM
[7] = second compound 0.1 µM, first compound 0.0316 µM
[8] = second compound 0.1 µM, first compound 0.1 µM
[9] = second compound 0.1 µM, first compound 0.316 µM
[10] = second compound 0.1 µM, first compound 1 µM
[11] = second compound 0.1 µM, first compound 3.16 µM
[12] = second compound 0.1 µM, first compound 10 µM
[13] = second compound 0.316 µM, first compound 0.0316 µM
[14] = second compound 0.316 µM, first compound 0.1 µM
[15] = second compound 0.316 µM, first compound 0.316 µM
[16] = second compound 0.316 µM, first compound 1 µM
[17] = second compound 0.316 µM, first compound 3.16 µM
[18] = second compound 0.316 µM, first compound 10 µM
[19] = second compound 1 µM, first compound 0.0316 µM
[20] = second compound 1 µM, first compound 0.1 µM
[21] = second compound 1 µM, first compound 0.316 µM
[22] = second compound 1 µM, first compound 1 µM
[23] = second compound 1 µM, first compound 3.16 µM
[24] = second compound 1 µM, first compound 10 µM
[25] = second compound 3.16 µM, first compound 0.0316 µM
[26] = second compound 3.16 µM, first compound 0.1 µM
[27] = second compound 3.16 µM, first compound 0.316 µM
[28] = second compound 3.16 µM, first compound 1 µM
[29] = second compound 3.16 µM, first compound 3.16 µM
[30] = second compound 3.16 µM, first compound 10 µM
[31] = second compound 10 µM, first compound 0.0316 µM
[32] = second compound 10 µM, first compound 0.1 µM
[33] = second compound 10 µM, first compound 0.316 µM
[34] = second compound 10 µM, first compound 1 µM
[35] = second compound 10 µM, first compound 3.16 µM
[36] = second compound 10 µM, first compound 10 µM
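Also: spheroids exposed to compounds for seven days before readout.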

## C#Cc1c(F)ccc2cc(O)cc(-c3ncc4c(N5CC6CCC(C5)N6)nc(OCC56CCCN5CC(F)C6)nc4c3F)c12 (stereo unspecified) + COC1C(OC(N)=O)C(O)C(Oc2ccc3c(O)c(NC(=O)c4ccc(O)c(CC=C(C)C)c4)c(=O)oc3c2C)OC1(C)C
Second compound 0.0316 µM
  IC50: > 10 µM
Second compound 0.1 µM
  IC50: > 10 µM
Second compound 0.316 µM
  IC50: > 10 µM
Second compound 1 µM
  IC50: > 10 µM
Second compound 3.16 µM
  IC50: > 10 µM
Second compound 10 µM
  IC50: > 10 µM
[1]
  viability, T/C: 97.4%
[2]
  viability, T/C: 79.1%
[3]
  viability, T/C: 69.6%
[4]
  viability, T/C: 65.3%
[5]
  viability, T/C: 60.8%
[6]
  viability, T/C: 58.2%
[7]
  viability, T/C: 94.9%
[8]
  viability, T/C: 84.9%
[9]
  viability, T/C: 74.9%
[10]
  viability, T/C: 60.1%
[11]
  viability, T/C: 71.6%
[12]
  viability, T/C: 54.2%
[13]
  viability, T/C: 100%
[14]
  viability, T/C: 88.5%
[15]
  viability, T/C: 87.8%
[16]
  viability, T/C: 68%
[17]
  viability, T/C: 67.3%
[18]
  viability, T/C: 60.3%
[19]
  viability, T/C: 91.3%
[20]
  viability, T/C: 78.1%
[21]
  viability, T/C: 80.1%
[22]
  viability, T/C: 87%
[23]
  viability, T/C: 65.2%
[24]
  viability, T/C: 56.9%
[25]
  viability, T/C: 94.6%
[26]
  viability, T/C: 77.8%
[27]
  viability, T/C: 79.5%
[28]
  viability, T/C: 67.7%
[29]
  viability, T/C: 60.4%
[30]
  viability, T/C: 54.3%
[31]
  viability, T/C: 96.9%
[32]
  viability, T/C: 91.9%
[33]
  viability, T/C: 79.1%
[34]
  viability, T/C: 64%
[35]
  viability, T/C: 70.2%
[36]
  viability, T/C: 55.7%

## CC1COCCN1c1cc(C2(O)CC3CCC(C2)O3)c2cnn(-c3ccn[nH]3)c2n1 (stereo unspecified) + COC1C(OC(N)=O)C(O)C(Oc2ccc3c(O)c(NC(=O)c4ccc(O)c(CC=C(C)C)c4)c(=O)oc3c2C)OC1(C)C
Second compound 0.0316 µM
  IC50: 1.13 µM
Second compound 0.1 µM
  IC50: 1.29 µM
Second compound 0.316 µM
  IC50: 1.05 µM
Second compound 1 µM
  IC50: 0.921 µM
Second compound 3.16 µM
  IC50: 0.898 µM
Second compound 10 µM
  IC50: 0.903 µM
[1]
  viability, T/C: 84.7%
[2]
  viability, T/C: 79.8%
[3]
  viability, T/C: 65.6%
[4]
  viability, T/C: 52.8%
[5]
  viability, T/C: 36.9%
[6]
  viability, T/C: 29.8%
[7]
  viability, T/C: 92%
[8]
  viability, T/C: 80.8%
[9]
  viability, T/C: 62.7%
[10]
  viability, T/C: 51.5%
[11]
  viability, T/C: 44.6%
[12]
  viability, T/C: 26.8%
[13]
  viability, T/C: 103%
[14]
  viability, T/C: 69.5%
[15]
  viability, T/C: 64.8%
[16]
  viability, T/C: 56.1%
[17]
  viability, T/C: 43.2%
[18]
  viability, T/C: 30.4%
[19]
  viability, T/C: 87.2%
[20]
  viability, T/C: 73.3%
[21]
  viability, T/C: 75.3%
[22]
  viability, T/C: 46.8%
[23]
  viability, T/C: 41.7%
[24]
  viability, T/C: 34.4%
[25]
  viability, T/C: 84.2%
[26]
  viability, T/C: 74.7%
[27]
  viability, T/C: 57%
[28]
  viability, T/C: 48.2%
[29]
  viability, T/C: 42.9%
[30]
  viability, T/C: 31%
[31]
  viability, T/C: 81.2%
[32]
  viability, T/C: 81.9%
[33]
  viability, T/C: 63.2%
[34]
  viability, T/C: 49.4%
[35]
  viability, T/C: 39.3%
[36]
  viability, T/C: 34.2%

## CCc1cc2c(N3CCc4c(cc(Cn5ccnc5)cc4-c4cn(C)nc4C(F)(F)F)C3=O)cc(C)nc2c(OC)n1 + COC1C(OC(N)=O)C(O)C(Oc2ccc3c(O)c(NC(=O)c4ccc(O)c(CC=C(C)C)c4)c(=O)oc3c2C)OC1(C)C
Second compound 0.0316 µM
  IC50: > 10 µM
Second compound 0.1 µM
  IC50: > 10 µM
Second compound 0.316 µM
  IC50: > 10 µM
Second compound 1 µM
  IC50: > 10 µM
Second compound 3.16 µM
  IC50: > 10 µM
Second compound 10 µM
  IC50: > 10 µM
[1]
  viability, T/C: 112%
[2]
  viability, T/C: 101%
[3]
  viability, T/C: 114%
[4]
  viability, T/C: 108%
[5]
  viability, T/C: 134%
[6]
  viability, T/C: 148%
[7]
  viability, T/C: 105%
[8]
  viability, T/C: 102%
[9]
  viability, T/C: 93.8%
[10]
  viability, T/C: 121%
[11]
  viability, T/C: 134%
[12]
  viability, T/C: 157%
[13]
  viability, T/C: 85.9%
[14]
  viability, T/C: 94.2%
[15]
  viability, T/C: 118%
[16]
  viability, T/C: 107%
[17]
  viability, T/C: 125%
[18]
  viability, T/C: 163%
[19]
  viability, T/C: 75.3%
[20]
  viability, T/C: 92.8%
[21]
  viability, T/C: 102%
[22]
  viability, T/C: 115%
[23]
  viability, T/C: 145%
[24]
  viability, T/C: 128%
[25]
  viability, T/C: 106%
[26]
  viability, T/C: 95.7%
[27]
  viability, T/C: 108%
[28]
  viability, T/C: 113%
[29]
  viability, T/C: 126%
[30]
  viability, T/C: 147%
[31]
  viability, T/C: 98.6%
[32]
  viability, T/C: 83.8%
[33]
  viability, T/C: 82.7%
[34]
  viability, T/C: 120%
[35]
  viability, T/C: 119%
[36]
  viability, T/C: 154%
